From US7348315B2, “Methods of treating heart failure with modified ATP, ADP and AMP compounds” (priority 1995, dated 2008) come the findings set out here.

This experiment concerns the target P2 purinergic receptor. Description: Intact myocyte binding with the P2-selective radioligand [35S]ADPβS. The conditions noted are these: intact myocytes; radioligand range 0.5-200 nM; read-out: Kd of low-affinity [35S]ADPβS binding site. The procedure:
Cardiac ventricular myocytes were prepared and incubated with progressively increasing concentrations of [^35S] ADPβS. The binding reaction is performed by the addition of a Dulbecco's Modified Eagle's Medium (which contains 1-glutamine and glucose but lacks phenol red, adenosine nucleotides, and sodium bicarbonate, buffered by HEPES, pH=7.4) containing [^35S]ADPβS (0.5 to 200 nM, for saturation isotherm study). Nonradioactive ADPβS is used to define the level of nonspecific binding. Additional purinergic agonists or antagonists are added depending on the experimental conditions. Following a 30-minute incubation at 37° C., cells are washed three times with 3 ml of ice-cold wash buffer (containing 120 mM NaCl, 5.4 mM KCl, 0.8 mM MgSO4, 1.8 mM CaCl2, 50 mM HEPES, and 1.0 mM NaH2PO4 adjusted to pH=7.4). One ml of 0.5 M NaOH is added to the monolayer culture to solubilize the cell protein and 0.5 ml of Tris buffer, pH=7.4 is added to neutralize NaOH prior to scintillation counting for ^35S.
To determine the Bmax and Kd of the specific [^35S]ADPβS binding, a computer-aided nonlinear regression analysis (LIGAND PROGRAM) is used. See, […] 1980, 107, 220-239. Both a one-site and a two-site model is applied to fit the data points.

The structures appear in SMILES notation.

In the case of `Nc1ncnc2c1ncn2[C@@H]1O[C@H](COP(=O)(O)OP(O)(O)=S)[C@@H](O)[C@H]1O` [[^35S] ADPβS, [^35S] 5′-O-2-thiodiphosphate], the Kd (commonly the constant that tells how readily two partners part at equilibrium) was 40 nM.
